Experimental data taken from patent US12540141B2, “Spiropyrrolidine derived antiviral agents” (priority 2020, dated 2026).

target: SARS-CoV-2 3CL-protease (Severe acute respiratory syndrome coronavirus 2, UniProt P0DTD1); test: SARS-CoV-2 3C-Like (3CL) Protease Fluorescence Assay (FRET); assay type: biochemical; settings: SARS-CoV-2 3CL-protease 10 nM, 30 min preincubation at RT, substrate 40 μM

| Structure (SMILES) | IC50 [µM] |
| --- | --- |
| CC(C)C[C@@H](C(=O)N1C[C@]2(C[C@H]1C#N)C(=O)Nc1ccccc12)N(C)C(=O)c1cccc(-c2ccc(C(F)(F)F)cc2)c1 [Example 263] | 0.1 to 1 |
| CC(C)C[C@@H](C(=O)N1C[C@]2(C[C@H]1C(O)S(=O)(=O)O)C(=O)Nc1ccccc12)N(C)C(=O)c1cc2c(F)cc(F)cc2[nH]1 (some centres unmarked) [Example 153] | < 0.1 |
| CC(C)C[C@@H](C(=O)N1C[C@]2(C[C@H]1C#N)C(=O)Nc1ccccc12)N(C)C(=O)c1cccc2ccccc12 [Example 241] | < 0.1 |
| CC(C)C[C@@H](C(=O)N1C[C@]2(C[C@H]1C#N)C(=O)Nc1ccccc12)N(C)C(=O)c1cccc(N)n1 [Example 199] | 0.1 to 1 |
| CC(C)C[C@@H](C(=O)N1C[C@]2(C[C@H]1C#N)C(=O)Nc1ccccc12)N(C)C(=O)c1cnn(-c2ccccc2C(F)(F)F)c1 [Example 353] | < 0.1 |
| COC(=O)c1ccc2c(c1)[C@@]1(C[C@@H](C#N)N(C(=O)[C@H](CC(C)C)N(C)C(=O)c3cc4c(F)cc(F)cc4[nH]3)C1)C(=O)N2 [Example 501, methyl (3R,5′S)-5′-cyano-1′-(N-(4,6-difluoro-1H-indole-2-carbonyl)-N-methyl-L-leucyl)-2-oxospiro[indoline-3,3′-pyrrolidine]-5-carboxylate] | < 0.1 |
| CC(C)C[C@@H](C(=O)N1C[C@]2(C[C@H]1C#N)C(=O)Nc1ccc(Br)cc12)N(C)C(=O)c1cc2c(F)cc(F)cc2[nH]1 [Example 508] | < 0.1 |
| CC(C)C[C@@H](C(=O)N1C[C@]2(C[C@H]1C#N)C(=O)Nc1ccccc12)N(C)C(=O)c1nc2ccccc2s1 [Example 206] | 0.1 to 1 |
| CC(C)C[C@@H](C(=O)N1C[C@]2(C[C@H]1C#N)C(=O)Nc1ccccc12)N(C)C(=O)c1cc2cc(C(F)(F)F)ccc2[nH]1 [Example 326] | < 0.1 |
| CC(C)(C)C[C@H](NC(=O)Nc1ccc(F)cc1F)C(=O)N1C[C@]2(C[C@H]1C#N)C(=O)Nc1ccccc12 [Example 436] | 0.1 to 1 |
| CC(C)C[C@@H](C(=O)N1C[C@]2(C[C@H]1C#N)C(=O)Nc1ccccc12)N(C)C(=O)c1nc2c(F)c(F)c(F)cc2[nH]1 [Example 273] | 0.1 to 1 |
| CC(C)C[C@@H](C(=O)N1C[C@]2(C[C@H]1C#N)C(=O)Nc1ccccc12)N(C)C(=O)CCc1ccccc1 [Example 227] | < 0.1 |
| CN(C(=O)CCN1CCOCC1)[C@@H](CC(C)(C)F)C(=O)N1C[C@]2(C[C@H]1C#N)C(=O)Nc1ccccc12 [Example 537] | < 0.1 |
| CC(C)C[C@@H](C(=O)N1C[C@]2(C[C@H]1C#N)C(=O)Nc1ccccc12)N(C)C(=O)c1cnc2cnccc2c1 [Example 301] | < 0.1 |
| [2H]C([2H])([2H])N(C(=O)c1cn(C2CCC2)nn1)[C@@H](Cc1ccc(F)cc1)C(=O)N1C[C@]2(C[C@H]1C#N)C(=O)Nc1ccccc12 [Example 390] | < 0.1 |
| CN(C(=O)c1cn(C(C)(C)C)nn1)[C@@H](Cc1ccccc1)C(=O)N1C[C@]2(C[C@H]1C#N)C(=O)Nc1ccccc12 [Example 363] | < 0.1 |
| CC(C)C[C@@H](C(=O)N1C[C@]2(C[C@H]1C#N)C(=O)Nc1ccccc12)N(C)C(=O)c1cc2cc(C(F)(F)F)cnc2[nH]1 [Example 488] | < 0.1 |
| CN(C(=O)c1ccn(CC(F)(F)F)n1)[C@@H](Cc1ccccc1)C(=O)N1C[C@]2(C[C@H]1C#N)C(=O)Nc1ccccc12 [Example 360] | < 0.1 |
| CC(C)C[C@@H](C(=O)N1C[C@]2(C[C@H]1C=O)C(=O)Nc1ccccc12)N(C)C(=O)c1cc2c(F)cc(F)cc2[nH]1 [Example 149] | < 0.1 |
| CC(C)C[C@@H](C(=O)N1C[C@]2(C[C@H]1C#N)C(=O)Nc1ccccc12)N(C)C(=O)c1ccnc2ccc(F)cc12 [Example 305] | < 0.1 |
| CC(C)C[C@@H](C(=O)N1C[C@]2(C[C@H]1C#N)C(=O)Nc1ccccc12)N(C)C(=O)c1cccc(-c2ccccc2C#N)c1 [Example 278] | < 0.1 |

| Structure (SMILES) | IC50 [µM] |
| --- | --- |
| CC(C)C[C@@H](C(=O)N1C[C@]2(C[C@H]1C(O)S(=O)(=O)O)C(=O)Nc1ccccc12)N(C)C(=O)c1cc2c(F)cc(F)c(F)c2[nH]1 (some centres unmarked) [Example 154] | < 0.1 |
| CC(C)C[C@@H](C(=O)N1C[C@]2(C[C@H]1C#N)C(=O)Nc1ccc(C#C[Si](C)(C)C)cc12)N(C)C(=O)c1cc2c(F)cc(F)cc2[nH]1 [Example 509] | < 0.1 |
| CN(C(=O)c1cn(C2CCC2)nn1)[C@@H](Cc1ccccc1)C(=O)N1C[C@]2(C[C@H]1C#N)C(=O)Nc1ccccc12 [Example 358] | < 0.1 |
| CC(C)(C)C[C@H](NC(=O)c1cn(CC(F)(F)F)nn1)C(=O)N1C[C@]2(C[C@H]1C#N)C(=O)Nc1ccccc12 [Example 143] | < 0.1 |
| CC(C)C[C@@H](C(=O)N1C[C@]2(C[C@H]1C#N)C(=O)Nc1ccc(-c3ccccn3)cc12)N(C)C(=O)c1cc2c(F)cc(F)cc2[nH]1 [Example 516] | < 0.1 |
| CN(C(=O)c1cn(-c2ccc(F)cc2)nn1)[C@@H](Cc1ccccc1)C(=O)N1C[C@]2(C[C@H]1C#N)C(=O)Nc1ccccc12 [Example 357] | < 0.1 |
| Cc1cc2cc(C(=O)N(C)[C@@H](CC(C)C)C(=O)N3C[C@]4(C[C@H]3C#N)C(=O)Nc3ccccc34)cc(OC(F)(F)F)c2nc1C [Example 238] | < 0.1 |
| CC(C)C[C@@H](C(=O)N1C[C@]2(C[C@H]1C#N)C(=O)Nc1ccccc12)N(C)C(=O)c1cn(-c2ccccn2)nn1 [Example 267] | < 0.1 |
| CC(C)C[C@@H](C(=O)N1C[C@]2(C[C@H]1C#N)C(=O)Nc1ccccc12)N(C)C(=O)c1cc2ccccc2cn1 [Example 212] | < 0.1 |
| C[C@@H](CC(=O)N[C@@H](CC(C)(C)C)C(=O)N1C[C@]2(C[C@H]1C#N)C(=O)Nc1ccccc12)NC(=O)OCc1ccccc1 [Example 130] | 0.1 to 1 |
| CC(C)C[C@@H](C(=O)N1C[C@]2(C[C@H]1C#N)C(=O)Nc1ccccc12)N(C)C(=O)c1cc(Cl)cc(C#N)c1 [Example 187] | < 0.1 |
| Cc1cccc(CC(=O)N(C)[C@@H](CC(C)(C)F)C(=O)N2C[C@]3(C[C@H]2C#N)C(=O)Nc2ccc(Cl)cc23)n1 [Example 487] | < 0.1 |
| CN(C(=O)c1cn(CC(F)(F)F)nn1)[C@@H](Cc1ccccc1)C(=O)N1C[C@]2(C[C@H]1C#N)C(=O)Nc1ccccc12 [Example 362] | < 0.1 |
| CC(C)C[C@@H](C(=O)N1C[C@]2(C[C@H]1C#N)C(=O)Nc1ccccc12)N(C)C(=O)c1nc2cc(F)ccc2[nH]1 [Example 250] | < 0.1 |
| CC(C)C[C@@H](C(=O)N1C[C@]2(C[C@H]1C#N)C(=O)Nc1ccccc12)N(C)C(=O)CCNC(=O)c1ccc(F)cc1F [Example 368] | < 0.1 |
| CC(C)C[C@@H](C(=O)N1C[C@]2(C[C@H]1C#N)C(=O)Nc1ccccc12)N(C)C(=O)c1cnc2ccccc2c1O [Example 260] | 0.1 to 1 |
| CC(C)C[C@@H](C(=O)N1C[C@]2(C[C@H]1C#N)C(=O)Nc1ccccc12)N(C)C(=O)c1ccc2ccncc2c1 [Example 217] | 0.1 to 1 |
| Cc1cccc2c1[C@@]1(C[C@@H](C#N)N(C(=O)[C@H](CC(C)C)NC(=O)c3cc4c(F)cccc4[nH]3)C1)C(=O)N2 [Example 529] | 0.1 to 1 |
| CC(C)C[C@@H](C(=O)N1C[C@]2(C[C@H]1C#N)C(=O)Nc1ccccc12)N(C)C(=O)c1ccc2cccnc2c1O [Example 285] | 0.1 to 1 |
| COc1cc(F)c2cc(C(=O)N(C)[C@@H](CC(C)C)C(=O)N3C[C@]4(C[C@H]3C#N)C(=O)Nc3ccccc34)[nH]c2c1F [Example 292] | < 0.1 |
